Legend:
SKOV3 = test: In vitro combination study, ovarian cancer cell line SKOV3; settings: 4+3 model
A2780 = test: In vitro combination study, ovarian cancer cell line A2780; settings: A2780; 4+3 model
COV504 = settings: COV504; 4+3 model
JH)S-4 = test: In vitro combination study, ovarian cancer cell line JH)S-4; settings: 4+3 model
HCC1419 = test: In vitro combination study, breast cancer cell line HCC1419; settings: ER/PR −/−, HER2 +, 7 day pre-treatment + 6 day co-treatment
BT-20 = test: In vitro combination study, breast cancer cell line BT-20; settings: ER/PR −/−, HER2 −, 7 day pre-treatment + 6 day co-treatment
KURAMOCHI = test: In vitro combination study, ovarian cancer cell line KURAMOCHI; settings: KURAMOCHI; 4+3 model
DU4475 = test: In vitro combination study, breast cancer cell line DU4475; settings: ER/PR −/−, HER2 −, 7 day pre-treatment + 6 day co-treatment
TOV112D = test: In vitro combination study, ovarian cancer cell line TOV112D; settings: 4+3 model
COV434 = settings: 4+3 model
OVISE = test: In vitro combination study, ovarian cancer cell line OVISE; settings: OVISE; 4+3 model
COV644* = test: In vitro combination study, ovarian cancer cell line COV644; settings: COV644*; 7+3 model
SNU840 = test: In vitro combination study, ovarian cancer cell line SNU840; settings: SNU840; 4+3 model
CAOV-3 = test: In vitro combination study, ovarian cancer cell line CAOV-3; assay type: cell-based; settings: 4+3 model
SUM52PE = test: In vitro combination study, breast cancer cell line SUM52PE; settings: ER/PR −/−, HER2 −, 7 day pre-treatment + 6 day co-treatment
MDA-MB-175VII = test: In vitro combination study, breast cancer cell line MDA-MB-175VII; settings: ER/PR +/+, HER2 +, 7 day pre-treatment + 6 day co-treatment
MDA-MB-453 = test: In vitro combination study, breast cancer cell line MDA-MB-453; assay type: cell-based; settings: ER/PR −/−, HER2 −, 7 day pre-treatment + 6 day co-treatment
BT549 = test: In vitro combination study, breast cancer cell line BT549; settings: ER/PR −/−, HER2 −, 7 day pre-treatment + 6 day co-treatment
SUM159PT = test: In vitro combination study, breast cancer cell line SUM159PT; settings: ER/PR −/−, HER2 −, 7 day pre-treatment + 6 day co-treatment
OV-90 = test: In vitro combination study, ovarian cancer cell line OV-90; settings: OV-90; 4+3 model
HCC1143 = test: In vitro combination study, breast cancer cell line HCC1143; settings: ER/PR −/−, HER2 −, 7 day pre-treatment + 6 day co-treatment
ES-2 = test: In vitro combination study, ovarian cancer cell line ES-2; settings: 4+3 model
TOV21G = test: In vitro combination study, ovarian cancer cell line TOV21G; assay type: cell-based; settings: 4+3 model
OVMANA = test: In vitro combination study, ovarian cancer cell line OVMANA; settings: OVMANA; 4+3 model
COV362 = test: In vitro combination study, ovarian cancer cell line COV362; settings: COV362; 4+3 model
OVSAHO = test: In vitro combination study, ovarian cancer cell line OVSAHO; settings: 4+3 model
CAMA-1 = test: In vitro combination study, breast cancer cell line CAMA-1; assay type: cell-based; settings: ER/PR +/−, HER2 +, 7 day pre-treatment + 6 day co-treatment
BT474 = test: In vitro combination study, breast cancer cell line BT474; settings: ER/PR +/+, HER2 +, 7 day pre-treatment + 6 day co-treatment

Structure (SMILES) | Synergy or antagonism of second agent with tazemetostat (IC50 shift of second agent) (SKOV3) | Synergy or antagonism of second agent with tazemetostat (IC50 shift of second agent) (A2780) | Synergy or antagonism of second agent with tazemetostat (IC50 shift of second agent) (COV504) | Synergy or antagonism of second agent with tazemetostat (IC50 shift of second agent) (HCC1419) | Synergy or antagonism of second agent with tazemetostat (IC50 shift of second agent) (KURAMOCHI) | Synergy or antagonism of second agent with tazemetostat (IC50 shift of second agent) (TOV112D) | Synergy or antagonism of second agent with tazemetostat (IC50 shift of second agent) (OVISE) | Synergy or antagonism of second agent with tazemetostat (IC50 shift of second agent) (COV644*) | Synergy or antagonism of second agent with tazemetostat (IC50 shift of second agent) (SNU840) | Synergy or antagonism of second agent with tazemetostat (IC50 shift of second agent) (CAOV-3) | Synergy or antagonism of second agent with tazemetostat (IC50 shift of second agent) (OV-90) | Synergy or antagonism of second agent with tazemetostat (IC50 shift of second agent) (OVMANA) | further results
Nc1cc(C(F)(F)F)c(-c2cc(N3CCOCC3)nc(N3CCOCC3)n2)cn1 [BKM120] | C (Synergy > 2× IC50 shift) | C (Synergy > 2× IC50 shift) | C (Synergy > 2× IC50 shift) | C (Synergy > 2× IC50 shift) | C (Synergy > 2× IC50 shift) | C (Synergy > 2× IC50 shift) | C (Synergy > 2× IC50 shift) | C (Synergy > 2× IC50 shift) | – | – | – | – | Synergy or antagonism of second agent with tazemetostat (IC50 shift of second agent) (JH)S-4): C (Synergy > 2× IC50 shift); Synergy or antagonism of second agent with tazemetostat (IC50 shift of second agent) (BT-20): C (Synergy > 2× IC50 shift); Synergy or antagonism of second agent with tazemetostat (IC50 shift of second agent) (DU4475): A (Antagonism); Synergy or antagonism of second agent with tazemetostat (IC50 shift of second agent) (COV434): C (Synergy > 2× IC50 shift)
Cc1nc(NC(=O)N2CCC[C@H]2C(N)=O)sc1-c1ccnc(C(C)(C)C(F)(F)F)c1 [BYL719] | C (Synergy > 2× IC50 shift) | B (Synergy > 4× IC50 shift) | B (Synergy > 4× IC50 shift) | – | – | C (Synergy > 2× IC50 shift) | C (Synergy > 2× IC50 shift) | C (Synergy > 2× IC50 shift) | B (Synergy > 4× IC50 shift) | C (Synergy > 2× IC50 shift) | – | – | –
Cc1cc(Nc2cc(N3CCN(C)CC3)nc(/C=C/c3ccccc3)n2)n[nH]1 [ENMD-2076] | – | – | – | – | – | – | – | – | – | – | – | – | Synergy or antagonism of second agent with tazemetostat (IC50 shift of second agent) (SUM52PE): C (Synergy > 2× IC50 shift); Synergy or antagonism of second agent with tazemetostat (IC50 shift of second agent) (MDA-MB-175VII): C (Synergy > 2× IC50 shift); Synergy or antagonism of second agent with tazemetostat (IC50 shift of second agent) (MDA-MB-453): A (Antagonism)
CO[C@H]1C[C@@H]2CC[C@@H](C)[C@@](O)(O2)C(=O)C(=O)N2CCCC[C@H]2C(=O)O[C@H]([C@H](C)C[C@@H]2CC[C@@H](OCCO)[C@H](OC)C2)CC(=O)[C@H](C)/C=C(\C)[C@@H](O)[C@@H](OC)C(=O)[C@H](C)C[C@H](C)/C=C/C=C/C=C/1C [Everolimus] | – | – | – | C (Synergy > 2× IC50 shift) | – | – | – | – | – | – | – | – | Synergy or antagonism of second agent with tazemetostat (IC50 shift of second agent) (BT549): A (Antagonism); Synergy or antagonism of second agent with tazemetostat (IC50 shift of second agent) (MDA-MB-175VII): C (Synergy > 2× IC50 shift); Synergy or antagonism of second agent with tazemetostat (IC50 shift of second agent) (SUM159PT): C (Synergy > 2× IC50 shift)
Cc1sc2c(c1C)C(c1ccc(Cl)cc1)=N[C@@H](CC(=O)OC(C)(C)C)c1nnc(C)n1-2 [JQ1] | B (Synergy > 4× IC50 shift) | B (Synergy > 4× IC50 shift) | C (Synergy > 2× IC50 shift) | C (Synergy > 2× IC50 shift) | – | C (Synergy > 2× IC50 shift) | – | – | – | B (Synergy > 4× IC50 shift) | C (Synergy > 2× IC50 shift) | – | Synergy or antagonism of second agent with tazemetostat (IC50 shift of second agent) (HCC1143): C (Synergy > 2× IC50 shift); Synergy or antagonism of second agent with tazemetostat (IC50 shift of second agent) (ES-2): C (Synergy > 2× IC50 shift); Synergy or antagonism of second agent with tazemetostat (IC50 shift of second agent) (TOV21G): C (Synergy > 2× IC50 shift)
Nc1ccccc1NC(=O)c1ccc(CNc2nccc(-c3cccnc3)n2)cc1 [Mocetinostat] | B (Synergy > 4× IC50 shift) | – | – | – | C (Synergy > 2× IC50 shift) | C (Synergy > 2× IC50 shift) | – | – | – | – | C (Synergy > 2× IC50 shift) | C (Synergy > 2× IC50 shift) | Synergy or antagonism of second agent with tazemetostat (IC50 shift of second agent) (COV434): C (Synergy > 2× IC50 shift); Synergy or antagonism of second agent with tazemetostat (IC50 shift of second agent) (COV362): C (Synergy > 2× IC50 shift)
O=C(c1cc(Cc2n[nH]c(=O)c3ccccc23)ccc1F)N1CCN(C(=O)C2CC2)CC1 [Olaparib] | – | B (Synergy > 4× IC50 shift) | – | – | – | – | – | – | – | – | – | – | Synergy or antagonism of second agent with tazemetostat (IC50 shift of second agent) (SUM159PT): C (Synergy > 2× IC50 shift)
Cc1[nH]c2ccccc2c1CCNCc1ccc(/C=C/C(=O)NO)cc1 [Panobinostat] | B (Synergy > 4× IC50 shift) | B (Synergy > 4× IC50 shift) | B (Synergy > 4× IC50 shift) | – | C (Synergy > 2× IC50 shift) | C (Synergy > 2× IC50 shift) | C (Synergy > 2× IC50 shift) | C (Synergy > 2× IC50 shift) | C (Synergy > 2× IC50 shift) | C (Synergy > 2× IC50 shift) | C (Synergy > 2× IC50 shift) | C (Synergy > 2× IC50 shift) | Synergy or antagonism of second agent with tazemetostat (IC50 shift of second agent) (JH)S-4): C (Synergy > 2× IC50 shift); Synergy or antagonism of second agent with tazemetostat (IC50 shift of second agent) (OVSAHO): C (Synergy > 2× IC50 shift); Synergy or antagonism of second agent with tazemetostat (IC50 shift of second agent) (COV362): C (Synergy > 2× IC50 shift); Synergy or antagonism of second agent with tazemetostat (IC50 shift of second agent) (TOV21G): C (Synergy > 2× IC50 shift)
CS(=O)(=O)N1CCN(Cc2cc3nc(-c4cccc5[nH]ncc45)nc(N4CCOCC4)c3s2)CC1 [Pictilisib] | – | C (Synergy > 2× IC50 shift) | – | – | – | – | – | C (Synergy > 2× IC50 shift) | C (Synergy > 2× IC50 shift) | C (Synergy > 2× IC50 shift) | – | C (Synergy > 2× IC50 shift) | –
Cc1cc(Nc2ccc(NC(=O)c3ccc(Nc4ccnc5ccccc45)cc3)cc2)nc(N)n1 [SGI1027] | – | – | – | – | – | – | – | – | – | – | – | – | Synergy or antagonism of second agent with tazemetostat (IC50 shift of second agent) (DU4475): A (Antagonism); Synergy or antagonism of second agent with tazemetostat (IC50 shift of second agent) (CAMA-1): C (Synergy > 2× IC50 shift); Synergy or antagonism of second agent with tazemetostat (IC50 shift of second agent) (BT474): B (Synergy > 4× IC50 shift)
